The text below walks through data of ChEMBL document CHEMBL1153891, “Bioactivity-guided isolation of cytotoxic constituents of Brucea javanica collected in Vietnam” (2009).

Assay [1] deals with Lu1. Kind of assay: Cytotoxicity against human Lu1 cells after 2 days by sulforhodamine B assay. The assay is classed as functional. To be noted: Lu1, 48 h, read-out: ED50 (the source's name). In general terms: Sulforhodamine B stains cellular protein and so reports cell mass.
Assay [2] deals with LNCaP. Kind of assay: Cytotoxicity against hormone-dependent human LNCAP cells after 2 days by sulforhodamine B assay. The note with it: 48 h, read-out: ED50 (the source's name). The format is functional.
Assay [3] concerns MCF7. Kind of assay: Cytotoxicity against human MCF7 cells after 2 days by sulforhodamine B assay. The assay is classed as functional. The note with it: MCF7, 48 h, read-out: ED50 (the source's name).
Assay [4] relates to MDR. Nature of the assay: Inhibition of MDR pump assessed as potentiation of bruceantin-induced cytotoxicity against human MCF7 cells at 20 ug/mL after 2 days by sulforhodamine B assay. The assay is classed as cell-based.
The test system of assay [5] is MDR. Nature of the assay: Inhibition of MDR pump assessed as potentiation of bruceine A-induced cytotoxicity against human MCF7 cells at 20 ug/mL after 2 days by sulforhodamine B assay. The assay is classed as cell-based.
For assay [6], the system named is MCF7. Kind of assay: Cytotoxicity against human MCF7 cells after 2 days by sulforhodamine B assay in presence of 43 uM (-)-hydnocarpin. The assay is classed as functional. To be noted: MCF7, 48 h, read-out: ED50 (the source's name).
Assay [7] has as its system MCF7. Kind of assay: Ratio ED50 for human MCF7 cells to ED50 for human MCF7 cells in presence of 43 uM (-)-hydnocarpin. The assay is classed as functional.

For the molecule `COc1cc([C@@H]2Oc3ccc(-c4cc(=O)c5c(O)cc(O)cc5o4)cc3O[C@H]2CO)ccc1O`, the EC50 in assay [1], in assay [2] and in assay [3] was more than 10 µM each time. The ED50 in assay [4] and in assay [5] was more than 10 µM each time.
In the case of `CCCCCC(=O)O[C@@H]1C[C@]2(C)C(=CC[C@H]2[C@@H]2C[C@@H]([C@@H]3OC3(C)C)O[C@@H]2OC(C)=O)[C@@]2(C)[C@H]1[C@@]1(C)C=CC(=O)C(C)(C)[C@@H]1C[C@H]2OC(C)=O`, the EC50 in assay [1], in assay [2] and in assay [3] was more than 10 µM each time.
In the case of `C/C=C(\C)C(=O)O[C@@H]1C[C@@]2(C)[C@H]([C@@H]3C[C@@H]([C@@H]4OC4(C)C)O[C@@H]3OC(C)=O)CC[C@]2(C)[C@@H]2CC=C3C(C)(C)C(=O)C[C@H](O)[C@]3(C)[C@H]21` [BRUCEAJAVANINONE A], the EC50 in assay [1], in assay [2] and in assay [3] was more than 10 µM each time.
As for `CCCCCC(=O)O[C@@H]1C[C@]2(C)C(=CC[C@H]2[C@@H]2C[C@@H]([C@@H]3OC3(C)C)O[C@@H]2OC(C)=O)[C@]2(C)[C@H](O)C[C@H]3C(C)(C)C(=O)C=C[C@]3(C)[C@@H]12` [BRUCEAJAVANONE A], the EC50 in assay [1], in assay [2] and in assay [3] was more than 10 µM throughout.
For `C/C=C(\C)C(=O)O[C@@H]1C[C@]2(C)C(=CC[C@H]2[C@@H]2C[C@@H]([C@@H]3OC3(C)C)O[C@@H]2OC(C)=O)[C@@]2(C)[C@H]1[C@@]1(C)C=CC(=O)C(C)(C)[C@@H]1C[C@H]2OC(C)=O` [BRUCEAJAVANONE B], the EC50 in assay [1], in assay [2] and in assay [3] was more than 10 µM throughout.
With `C/C=C(\C)C(=O)O[C@@H]1C[C@]2(C)C(=CC[C@H]2[C@@H]2C[C@@H]([C@@H]3OC3(C)C)O[C@H]2OC)[C@]2(C)[C@H](OC(C)=O)C[C@H]3C(C)(C)C(=O)C[C@H](O)[C@]3(C)[C@@H]12` [BRUCEAJAVANONE C], the EC50 in assay [1], in assay [2] and in assay [3] was more than 10 µM each time.
In the case of `COC(=O)[C@@]12OC[C@]34[C@H]([C@@H](O)[C@@H]1O)[C@@]1(C)CC(=O)C(O)=C(C)[C@@H]1C[C@H]3OC(=O)[C@H](OC(=O)/C=C(\C)C(C)C)[C@@H]24` [BRUCEANTIN], the EC50 is 0.012 µM in assay [1], 0.011 µM in assay [2], 0.002 µM in assay [3] and 0.00027 µM in assay [6]. Further, the “Ratio ED50” value in assay [7] was 7.4.
On the same counts, the results for `COC(=O)[C@@]12OC[C@]34[C@H]([C@@H](O)[C@@H]1O)[C@@]1(C)CC(=O)C(O)=C(C)[C@@H]1C[C@H]3OC(=O)[C@H](OC(=O)CC(C)C)[C@@H]24` [BRUCEINE A] are 0.079 µM, 0.096 µM, 0.015 µM, 0.0015 µM and 10.
As for `CC[C@@]1(O)C(=O)OCc2c1cc1n(c2=O)Cc2cc3ccccc3nc2-1` [CAMPTOTHECIN], the EC50 in assay [1], in assay [2] and in assay [3] was more than 10 µM each time.
On to `CC(=O)O[C@H]1C(=O)[C@@]2(C)[C@H]([C@H](OC(=O)c3ccccc3)[C@]3(O)C[C@H](OC(=O)[C@H](O)[C@@H](NC(=O)c4ccccc4)c4ccccc4)C(C)=C1C3(C)C)[C@]1(OC(C)=O)CO[C@@H]1C[C@@H]2O` [PACLITAXEL], for which the EC50 in assay [1], in assay [2] and in assay [3] was more than 10 µM throughout.
